Literature values as cited in PubChem BioAssay AID1259409 (Chemical Carcinogenesis Research Information System (CCRIS), 2018).
“And” between values parts separate entries of the source, which are not always exact repeats. Equal values may be shown once.

Tested on: rodent chemically induced tumor inhibition, incidence and multiplicity
Experiment: CCRIS tumor inhibitor studies

For `NCCCC(N)(C(=O)O)C(F)F` (centres undefined), the “tumour outcome (control, treated, inhibition, significance)” value (Carcinogen: DIETHYLNITROSAMINE, 55-18-5, Dose [Inhibitor]: 0, 600 MG/KG BW BY INTRAPERITONEAL INJECTION ON DAYS 13, 14 AND 15 OF AGE THEN 4 G/KG DIET FROM 21 TO 161 DAYS OF AGE (S, Route [Inhibitor]: INTRAPERITONEAL, ORAL, Species: MOUSE, Strain/Sex: C3H/MALE, Target Tissue: Type of Lesion: LIVER: ADENOMA, Dose [Carcinogen]: 4 MG/KG IN TRICAPRYLIN ONCE ON DAY 15 OF AGE, Promoter: NONE USED) is listed as 100%, 100%, 0%, not significant, the “tumour outcome (control, treated, inhibition, significance)” value (Carcinogen: DIETHYLNITROSAMINE, 55-18-5, Dose [Inhibitor]: 0, 1600 MG/KG DIET FOR DURATION OF STUDY BEGINNING 1 WK PRIOR TO CARCINOGEN TREATMENT (STUDY DURATION: 25 WK), Route [Inhibitor]: ORAL, Species: HAMSTER, Strain/Sex: SYRIAN/MALE, Target Tissue: Type of Lesion: LUNG: CARCINOMA, Dose [Carcinogen]: 17.8 MG/KG BW 2/WK FOR 20 WK, Promoter: NONE USED) is listed as 50%, 41%, 18%, not significant and the “tumour outcome (control, treated, inhibition, significance)” value (Carcinogen: DIETHYLNITROSAMINE, 55-18-5, Dose [Inhibitor]: 0, 1600 MG/KG DIET FOR DURATION OF STUDY BEGINNING 1 WK PRIOR TO CARCINOGEN TREATMENT (STUDY DURATION: 25 WK), Route [Inhibitor]: ORAL, Species: HAMSTER, Strain/Sex: SYRIAN/MALE, Target Tissue: Type of Lesion: TRACHEA: PAPILLOMA, Dose [Carcinogen]: 17.8 MG/KG BW 2/WK FOR 20 WK, Promoter: NONE USED) is listed as 95%, 83%, 13%, not significant. For the same molecule, the “tumour outcome (control, treated, inhibition, significance)” value (Carcinogen: DIETHYLNITROSAMINE, 55-18-5, Dose [Inhibitor]: 0, 3200 MG/KG DIET FOR DURATION OF STUDY BEGINNING 1 WK PRIOR TO CARCINOGEN TREATMENT (STUDY DURATION: 25 WK), Route [Inhibitor]: ORAL, Species: HAMSTER, Strain/Sex: SYRIAN/MALE, Target Tissue: Type of Lesion: LUNG: CARCINOMA, Dose [Carcinogen]: 17.8 MG/KG BW 2/WK FOR 20 WK, Promoter: NONE USED) was 60%, 47%, 22%, not significant, the “tumour outcome (control, treated, inhibition, significance)” value (Carcinogen: DIETHYLNITROSAMINE, 55-18-5, Dose [Inhibitor]: 0, 3200 MG/KG DIET FOR DURATION OF STUDY BEGINNING 1 WK PRIOR TO CARCINOGEN TREATMENT (STUDY DURATION: 25 WK), Route [Inhibitor]: ORAL, Species: HAMSTER, Strain/Sex: SYRIAN/MALE, Target Tissue: Type of Lesion: TRACHEA: PAPILLOMA, Dose [Carcinogen]: 17.8 MG/KG BW 2/WK FOR 20 WK, Promoter: NONE USED) was 100%, 95%, 5%, not significant and the “tumour outcome (control, treated, inhibition, significance)” value (Carcinogen: METHYLAZOXYMETHANOL ACETATE, 592-62-1, Dose [Inhibitor]: 0, 0.1% IN DRINKING WATER FOR 25 WK BEGINNING 15 WK POST INITIAL CARCINOGEN DOSE (STUDY DURATION: 40 WK), Route [Inhibitor]: ORAL, Species: RAT, Strain/Sex: F344/MALE, Target Tissue: Type of Lesion: LARGE INTESTINE: ADENOCARCINOMA, Dose [Carcinogen]: 20 MG/KG BW 1/WK FOR 3 WK, Promoter: 1,2-DIMETHYLHYDRAZINE, 540-73-8) was 16/26 (62%), 11/28 (39%), 37%, not significant. The “tumour outcome (control, treated, inhibition, significance)” value (Carcinogen: METHYLAZOXYMETHANOL ACETATE, 592-62-1, Dose [Inhibitor]: 0, 0.1% IN DRINKING WATER FOR 25 WK BEGINNING 15 WK POST INITIAL CARCINOGEN DOSE (STUDY DURATION: 40 WK), Route [Inhibitor]: ORAL, Species: RAT, Strain/Sex: F344/MALE, Target Tissue: Type of Lesion: SMALL INTESTINE: ADENOCARCINOMA, Dose [Carcinogen]: 20 MG/KG BW 1/WK FOR 3 WK, Promoter: 1,2-DIMETHYLHYDRAZINE, 540-73-8) was 8/26 (31%), 8/25 (29%), 6%, not significant, the “tumour outcome (control, treated, inhibition, significance)” value (Carcinogen: N-BUTYL-N(4-HYDROXYBUTYL)NITROSAMINE, 3817-11-6, Dose [Inhibitor]: 0, 640 MG/KG DIET FOR 6 MO BEGINNING 1 WK PRIOR TO CARCINOGEN TREATMENT (STUDY DURATION: 6 MO), Route [Inhibitor]: ORAL, Species: MOUSE, Strain/Sex: BDF/MALE, Target Tissue: Type of Lesion: URINARY BLADDER: CARCINOMA, Dose [Carcinogen]: 7.5 MG IN 0.1 ML ETHANOL:WATER (20:80) 1/WK FOR 8 WK, Promoter: NONE USED) was 27/70 (39%), 21/72 (29%), 26%, not calculated and the “tumour outcome (control, treated, inhibition, significance)” value (Carcinogen: N-BUTYL-N-(4-HYDROXYBUTYL)NITROSAMINE, 3817-11-6, Dose [Inhibitor]: 0, 600 MG/KG DIET BEGINNING 1 WK PRIOR TO CARCINOGEN TREATMENT AND CONTINUING FOR DURATION OF STUDY (STUDY DURATION: 180, Route [Inhibitor]: ORAL, Species: MOUSE, Strain/Sex: BDF/MALE, Target Tissue: Type of Lesion: BLADDER: CARCINOMA, Dose [Carcinogen]: 7.5 MG IN 0.1 ML OF ETHANOL:WATER (20:80) 1/WK FOR 8 WK, Promoter: NONE USED) was 25/63 (40%), 17/72 (24%), 40%, p<0.05. The “tumour outcome (control, treated, inhibition, significance)” value (Carcinogen: N-BUTYL-N-(4-HYDROXYBUTYL)NITROSAMINE, 3817-11-6, Dose [Inhibitor]: 0, 1200 MG/KG DIET BEGINNING 1 WK PRIOR TO CARCINOGEN TREATMENT AND CONTINUING FOR DURATION OF STUDY (STUDY DURATION: 18, Route [Inhibitor]: ORAL, Species: MOUSE, Strain/Sex: BDF/MALE, Target Tissue: Type of Lesion: BLADDER: CARCINOMA, Dose [Carcinogen]: 7.5 MG IN 0.1 ML OF ETHANOL:WATER (20:80) 1/WK FOR 8 WK, Promoter: NONE USED) was 28/65 (43%), 14/65 (22%), 49%, p<0.01, the “tumour outcome (control, treated, inhibition, significance)” value (Carcinogen: N-BUTYL-N-(4-HYDROXYBUTYL)NITROSAMINE, 3817-11-6, Dose [Inhibitor]: 0, 1280 MG/KG DIET FOR 6 MO BEGINNING 1 WK PRIOR TO CARCINOGEN TREATMENT (STUDY DURATION: 6 MO), Route [Inhibitor]: ORAL, Species: MOUSE, Strain/Sex: BDF/MALE, Target Tissue: Type of Lesion: URINARY BLADDER: CARCINOMA, Dose [Carcinogen]: 7.5 MG IN 0.1 ML ETHANOL:WATER (20:80) 1/WK FOR 8 WK, Promoter: NONE USED) was 30/73 (41%), 15/73 (21%), 49%, p<0.01 and the “tumour outcome (control, treated, inhibition, significance)” value (Carcinogen: N-BUTYL-N-(4-HYDROXYBUTYL)NITROSOAMINE, 3817-11-6, Dose [Inhibitor]: 0.2% IN DRINKING WATER BEGINNING POST CARCINOGEN DOSE AND CONTINUING FOR 40 WK FOLLOWED BY TAP WATER FOR DURATION OF STU, Route [Inhibitor]: ORAL, Species: RAT, Strain/Sex: F344/MALE, Target Tissue: Type of Lesion: URINARY BLADDER: CARCINOMA, Dose [Carcinogen]: 0.05% IN DRINKING WATER FOR 6 WK, Promoter: NONE USED) was 19/19 (100%), 16/18 (89%), 11%, not significant and 24/24 (100%), 23/25 (92%), 8%, not significant. For the same molecule, the “tumour outcome (control, treated, inhibition, significance)” value (Carcinogen: N-BUTYL-N-(4-HYDROXYBUTYL)NITROSOAMINE, 3817-11-6, Dose [Inhibitor]: 0.2% IN DRINKING WATER BEGINNING POST CARCINOGEN DOSE AND CONTINUING FOR DURATION OF STUDY (STUDY DURATION: 75 WK), Route [Inhibitor]: ORAL, Species: RAT, Strain/Sex: F344/MALE, Target Tissue: Type of Lesion: URINARY BLADDER: CARCINOMA, Dose [Carcinogen]: 0.05% IN DRINKING WATER FOR 6 WK, Promoter: NONE USED) was 16/25 (64%), 11/24 (46%), 28%, not significant (at 40 wk post carcinogen dose) and 19/19 (100%), 12/19 (63%), 37%, p<0.017 (at 60 wk post carcinogen dose) and 24/24 (100%), 19/20 (95%), 5%, not significant (at 75 wk post carcinogen dose) and the “tumour outcome (control, treated, inhibition, significance)” value (Carcinogen: N-ETHYL-N-NITROSOUREA, 759-73-9, Dose [Inhibitor]: 0, 250 MG/KG DIET FOR DURATION OF STUDY BEGINNING POST CARCINOGEN DOSE (STUDY DURATION: 35 WK), Route [Inhibitor]: ORAL, Species: MOUSE, Strain/Sex: PIM/MALE, Target Tissue: Type of Lesion: LYMPHATIC SYSTEM: LYMPHOMA, Dose [Carcinogen]: 50 MG/KG BW ONCE, Promoter: NONE USED) was 21/40 (53%), 15/29 (52%), 2%, not significant.
